Publication PMC9100673, “Acridine Based N-Acylhydrazone Derivatives as Potential Anticancer Agents: Synthesis, Characterization and ctDNA/HSA Spectroscopic Binding Properties” (Molecules, 2022)

Key:
A549 cells = test: MTT assay, metabolic activity of A549 cells; type: cell-based, human; conditions: for IC50: Homo sapiens
Protocol: (§1) The effect of acridine-benzohydrazides (3a–3d) on the metabolic activity of the lung adenocarcinoma cell line (A549) and the normal colon fibroblast cell line (CCD-18Co) was evaluated using a 3-(4,5-dimethylthiazol-2-yl)-2,5-diphenyltertrazolium bromide (MTT) cell assay. This assay is based on the metabolization of yellow MTT to purple formazan crystal by mitochondrial dehydrogenases, and therefore only metabolic active cells are capable of that reaction. The CCD-18Co cell line was used as a control to check for derivatives selectivity. The doxorubicin belongs to a group of anthracyclines, which represent the chemotherapeutic regiments for the treatment of NSCLC (non-small cell lung carcinoma) even today, and acts as antineoplastic mainly by interaction with the DNA topoisomerase II and by creating DNA single- and double-strand breaks. Previous studies described detailed cytotoxic effects of doxorubicin in the human lung adenocarcinoma A549 cell line. Doxorubicin resembles our compounds in its biological action; therefore, it was employed as a positive control.
(§2) Human lung carcinoma cell line A549 and CCD-18Co colon fibroblasts were purchased from the American Type Culture Collection (ATCC, Rockville, MD, USA). The A549 cells were cultured in a complete RPMI-1640 medium (Sigma-Aldrich, St. Louis, MO, USA) and CCD-18Co cells were cultured in a minimum essential medium (MEM) (PAN-Biotech GmbH, Aidenbach, Germany) at 37 °C, 95% humidity and 5% CO2. The media were supplemented with 10% fetal bovine serum (FBS, Biosera, Nuaille, France) and antibiotics (1% Antibiotic-Antimycotic 100 × and 50 × 10^−3 g L^−1 gentamicin, Biosera). Prior to the selected treatments, cells were seeded on 6- and/or 96-well plates (TPP, Trasadingen, Switzerland) and left to settle for 24 h. The acridine compounds solutions (at concentrations ranging from 5–75 µM) were then added to cells for 24 or 48 h, and analysis was subsequently performed.
(§3) MTT assays were performed in order to evaluate changes in the metabolic activity of cells that had occurred as a consequence of treatment with the acridine compounds. A549 cells (15 × 10^3 cells/cm^2) and CCD-18Co (15.625 × 10^3 cells/cm^2) were seeded in 96-well microplates. The A549 cells were treated for 24 and 48 h, and the CCD-18Co cells were treated for 48 h with different concentrations (5, 25, 50 and 75 µM) of the derivatives. After the treatment, the MTT (3-(4,5-dimethylthiazol-2-yl)-2,5-diphenyltertrazolium bromide) solution in PBS (5 mg mL^−1) was added to each well. The reaction was stopped after 4 h incubation, and the formazan was dissolved by the addition of SDS at a final concentration of 3.3%. The absorbance of formazan (λ = 584 nm) was measured using a BMG FLUOstar Optima spectrometer (BMG Labtech GmbH, Offenburg, Germany). The results were evaluated as percentages of the absorbance of the untreated control. Results are presented as the average percentage of cells from three independent experiments. IC50 values for the derivatives were extrapolated from a sigmoidal fit (dose-response curve) to the metabolic activity data using OriginPro 8.5.0 SR1 (OriginLab Corp., Northampton, MA, USA).

CCD-18Co cells = test: MTT assay, metabolic activity of CCD-18Co fibroblasts; type: cell-based, human; conditions: 48 h
Protocol: as §1, §2, §3

For `COc1cccc2c1C(=O)c1c(O)c3c(c(O)c1C2=O)C[C@@](O)(C(=O)CO)C[C@@H]3O[C@H]1C[C@H](N)[C@H](O)[C@H](C)O1` [DOXO, doxorubicin, reference compound], the “effect on metabolic activity of A549 cells” value (A549 cells; 24 h and 48 h, 5–75 μM tested) was “significantly decreased”, the IC50 (A549 cells; A549, 24 h) was 56 µM and the IC50 (A549 cells; A549, 48 h) was 5 µM. For the same compound, the “effect on metabolic activity of CCD-18Co cells” value (CCD-18Co cells; 5–75 μM tested) was “significantly decreased” and the IC50 (CCD-18Co cells; Homo sapiens, CCD-18Co) was 5 µM.
For `O=C(N/N=C/c1ccc(F)cc1)c1cccc2cc3ccccc3nc12` [7b, N′-[(E)-4-Fluorophenylmethylidene]acridine-4-carbohydrazide], the melting point was 255 to 256 °C.
With `O=C(N/N=C/c1ccc(Cl)cc1)c1cccc2cc3ccccc3nc12` [7c, N′-[(E)-4-Chlorophenylmethylidene]acridine-4-carbohydrazide] the melting point was 243 to 244 °C.
Compound `O=C(N/N=C/c1ccc(Br)cc1)c1cccc2cc3ccccc3nc12` [7d, N′-[(E)-4-Bromophenylmethylidene]acridine-4-carbohydrazide] has a melting point of 240 to 241 °C.
